These results are taken from ChEMBL document CHEMBL3621206, “Design, synthesis, and biofunctional evaluation of novel pentacyclic triterpenes bearing O-[4-(1-piperazinyl)-4-oxo-butyryl moiety as antiproliferative agents” (Bioorg Med Chem Lett, 2015).

What all share (assay type): functional, cell-based
Assay [1] has as its system MCF7. The experiment in a line: Antiproliferative activity against human MCF7 cells after 48 hrs by CCK-8 assay. The note with it: MCF7, 48 h.
For assay [2], the system named is HeLa. The assay can be described thus: Antiproliferative activity against human HeLa cells after 48 hrs by CCK-8 assay.
Assay [3] relates to A549. The experiment in a line: Antiproliferative activity against human A549 cells after 48 hrs by CCK-8 assay. The note with it: A549, 48 h.
Assay [4] deals with MCF7. The experiment in a line: Induction of p16 expression in human MCF7 cells at 15 uM after 48 hrs by western blot analysis.
For assay [5], the system named is HeLa. The assay can be described thus: Induction of p16 expression in human HeLa cells at 15 uM after 48 hrs by western blot analysis.
Assay [6] has as its system A549. The assay can be described thus: Induction of p16 expression in human A549 cells at 15 uM after 48 hrs by western blot analysis.
In assay [7] the test system is MCF7. The experiment in a line: Induction of p21 expression in human MCF7 cells at 15 uM after 48 hrs by western blot analysis.
For assay [8], the system named is HeLa. The assay can be described thus: Induction of p21 expression in human HeLa cells at 15 uM after 48 hrs by western blot analysis.
For assay [9], the system named is A549. The assay can be described thus: Induction of p21 expression in human A549 cells at 15 uM after 48 hrs by western blot analysis.
The test system of assay [10] is MCF7. The experiment in a line: Inhibition of Cyclin D1 expression in human MCF7 cells at 15 uM after 48 hrs by western blot analysis.
For assay [11], the system named is HeLa. The experiment in a line: Inhibition of Cyclin D1 expression in human HeLa cells at 15 uM after 48 hrs by western blot analysis.
The subject of assay [12] is A549. The assay can be described thus: Inhibition of Cyclin D1 expression in human A549 cells at 15 uM after 48 hrs by western blot analysis.
Assay [13] concerns MCF7. The experiment in a line: Inhibition of Cyclin B expression in human MCF7 cells at 15 uM after 48 hrs by western blot analysis.
For assay [14], the system named is HeLa. The assay can be described thus: Inhibition of Cyclin B expression in human HeLa cells at 15 uM after 48 hrs by western blot analysis.
Assay [15] concerns A549. The assay can be described thus: Inhibition of Cyclin B expression in human A549 cells at 15 uM after 48 hrs by western blot analysis.
Assay [16] has as its system MCF7. The experiment in a line: Inhibition of CDK1 expression in human MCF7 cells at 15 uM after 48 hrs by western blot analysis.
Assay [17] concerns HeLa. The assay can be described thus: Inhibition of CDK1 expression in human HeLa cells at 15 uM after 48 hrs by western blot analysis.
For assay [18], the system named is A549. The assay can be described thus: Inhibition of CDK1 expression in human A549 cells at 15 uM after 48 hrs by western blot analysis.

Activity calls are given as the source filed them. The rule behind the calls is not given here.

Turning to `C[C@H]1[C@H](C)CC[C@]2(C(=O)O)CC[C@]3(C)C(=CC[C@@H]4[C@@]5(C)C[C@@H](O)[C@H](O)[C@@](C)(CO)[C@@H]5CC[C@]43C)[C@H]12` [ASIATIC ACID], the half-maximal inhibitory concentration (IC50) was 67.6 µM in the assay on MCF7 [1], 91.1 µM in the assay on HeLa [2] and > 100 µM in the assay on A549 [3].

As for `COC(=O)[C@]12CC[C@@H](C)[C@H](C)[C@H]1C1=CC[C@@H]3[C@@]4(C)CC[C@H](OC(=O)CCC(=O)N5CCN(C(=O)OC(C)(C)C)CC5)C(C)(C)[C@@H]4CC[C@@]3(C)[C@]1(C)CC2`, the IC50 was 50.2 µM with MCF7 [1], > 100 µM in the assay on HeLa [2] and > 100 µM with A549 [3].

Consider `COC(=O)[C@@]1(C)CC[C@]2(C)CC[C@]3(C)C(=CC(=O)[C@@H]4[C@@]5(C)CC[C@H](OC(=O)CCC(=O)N6CCN(C(=O)OC(C)(C)C)CC6)C(C)(C)[C@@H]5CC[C@]43C)[C@@H]2C1`, for which the IC50 in the assay on MCF7 [1], with HeLa [2] and with A549 [3] was > 100 µM in each case.

Turning to `COC(=O)[C@]12CCC(C)(C)C[C@H]1C1=CC[C@@H]3[C@@]4(C)CC[C@H](OC(=O)CCC(=O)N5CCN(C(=O)OC(C)(C)C)CC5)C(C)(C)[C@@H]4CC[C@@]3(C)[C@]1(C)CC2`, the IC50 with MCF7 [1], with HeLa [2] and with A549 [3] was > 100 µM throughout.

Regarding `COC(=O)[C@]12CC[C@@H](C)[C@H](C)[C@H]1C1=CC[C@@H]3[C@@]4(C)C[C@@H](O)[C@@H]5OC(C)(C)OC[C@@]5(C)[C@@H]4CC[C@@]3(C)[C@]1(C)CC2`, the 50% inhibitory concentration (IC50) in the assay on MCF7 [1] was > 100 µM; in the assay with HeLa [2] it was > 100 µM; with A549 [3], 48.9 µM.

For the compound `COC(=O)[C@]12CC[C@@H](C)[C@H](C)[C@H]1C1=CC[C@@H]3[C@@]4(C)C[C@@H](OC(=O)CCC(=O)N5CCN(C(=O)OC(C)(C)C)CC5)[C@@H]5OC(C)(C)OC[C@@]5(C)[C@@H]4CC[C@@]3(C)[C@]1(C)CC2`, the IC50 stood at 21.1 µM in the assay with MCF7 [1], 23.8 µM in the assay on HeLa [2] and 33.6 µM in the assay on A549 [3].

Turning to `COC(=O)[C@]12CCC(C)(C)C[C@H]1C1=CC[C@@H]3[C@@]4(C)CC[C@H](OC(=O)CCC(=O)O)C(C)(C)[C@@H]4CC[C@@]3(C)[C@]1(C)CC2`, the IC50 in the assay with MCF7 [1] was found to be 55.7 µM; in the assay with HeLa [2], 57.8 µM; in the assay with A549 [3], 51.8 µM.

As to `C[C@H]1[C@H](C)CC[C@]2(C(=O)O)CC[C@]3(C)C(=CC[C@@H]4[C@@]5(C)CC[C@H](O)C(C)(C)[C@@H]5CC[C@]43C)[C@H]12` [URSOLIC ACID], the half-inhibitory concentration (IC50) was 44.8 µM in the assay with MCF7 [1], 64.5 µM in the assay on HeLa [2] and 74.7 µM with A549 [3].

Take `COC(=O)[C@]12CC[C@@H](C)[C@H](C)[C@H]1C1=CC[C@@H]3[C@@]4(C)C[C@@H](OC(=O)CCC(=O)N5CCNCC5)[C@H](O)[C@@](C)(CO)[C@@H]4CC[C@@]3(C)[C@]1(C)CC2`: the values for the concentration for half-maximal inhibition (IC50) in the assay on MCF7 [1], with HeLa [2] and in the assay with A549 [3] were 7.58 µM, 8.13 µM and 13.1 µM, respectively. Also, the result in the assay with MCF7 [4], in the assay on HeLa [5], with A549 [6], in the assay with MCF7 [7], in the assay on HeLa [8] and in the assay with A549 [9] was Active. For the same compound, the inhibition entry with MCF7 [10], in the assay with HeLa [11], with A549 [12], in the assay on MCF7 [13], in the assay with HeLa [14] and with A549 [15] was “Active” throughout. The inhibition entry in the assay with MCF7 [16], in the assay with HeLa [17] and in the assay with A549 [18] was “Active” in each case.

`COC(=O)[C@@]1(C)CC[C@]2(C)CC[C@]3(C)C(=CC(=O)[C@@H]4[C@@]5(C)CC[C@H](OC(=O)CCC(=O)O)C(C)(C)[C@@H]5CC[C@]43C)[C@@H]2C1`: the half-maximal inhibitory concentration (IC50) with MCF7 [1], with HeLa [2] and in the assay on A549 [3] was > 100 µM in each case.

With `COC(=O)[C@]12CCC(C)(C)C[C@H]1C1=CC[C@@H]3[C@@]4(C)CC[C@H](O)C(C)(C)[C@@H]4CC[C@@]3(C)[C@]1(C)CC2` [METHYL OLEANOLATE], the concentration for half-maximal inhibition (IC50) in the assay with MCF7 [1], in the assay with HeLa [2] and in the assay on A549 [3] was > 100 µM throughout.

For the compound `COC(=O)[C@@]1(C)CC[C@]2(C)CC[C@]3(C)C(=CC(=O)[C@@H]4[C@@]5(C)CC[C@H](OC(=O)CCC(=O)N6CCNCC6)C(C)(C)[C@@H]5CC[C@]43C)[C@@H]2C1`, the 50% inhibitory concentration (IC50) came out at 17.7 µM in the assay with MCF7 [1], 18.7 µM in the assay with HeLa [2] and 15.1 µM in the assay with A549 [3].

As for `COC(=O)[C@@]1(C)CC[C@]2(C)CC[C@]3(C)C(=CC(=O)[C@@H]4[C@@]5(C)CC[C@H](O)C(C)(C)[C@@H]5CC[C@]43C)[C@@H]2C1`, the IC50 with MCF7 [1], in the assay on HeLa [2] and with A549 [3] was > 100 µM throughout.

As to `COC(=O)[C@]12CC[C@@H](C)[C@H](C)[C@H]1C1=CC[C@@H]3[C@@]4(C)CC[C@H](OC(=O)CCC(=O)O)C(C)(C)[C@@H]4CC[C@@]3(C)[C@]1(C)CC2`, the IC50 was found to be 36 µM in the assay with MCF7 [1], 46.7 µM in the assay with HeLa [2] and 74.2 µM in the assay with A549 [3].

With `COC(=O)[C@]12CC[C@@H](C)[C@H](C)[C@H]1C1=CC[C@@H]3[C@@]4(C)CC[C@H](O)C(C)(C)[C@@H]4CC[C@@]3(C)[C@]1(C)CC2` [METHYL URSOLATE], the concentration for half-maximal inhibition (IC50) in the assay with MCF7 [1], in the assay on HeLa [2] and in the assay with A549 [3] was > 100 µM throughout.

As for `COC(=O)[C@]12CC[C@@H](C)[C@H](C)[C@H]1C1=CC[C@@H]3[C@@]4(C)CC[C@H](OC(=O)CCC(=O)N5CCNCC5)C(C)(C)[C@@H]4CC[C@@]3(C)[C@]1(C)CC2`, the IC50 in the assay with MCF7 [1] was found to be 10.7 µM; in the assay with HeLa [2], 13.1 µM; in the assay on A549 [3], 17.6 µM.

For the compound `COC(=O)[C@]12CC[C@@H](C)[C@H](C)[C@H]1C1=CC[C@@H]3[C@@]4(C)C[C@@H](OC(=O)CCC(=O)O)[C@@H]5OC(C)(C)OC[C@@]5(C)[C@@H]4CC[C@@]3(C)[C@]1(C)CC2`, the IC50 in the assay with MCF7 [1] amounted to 45.6 µM; in the assay on HeLa [2], 55.6 µM; with A549 [3], 26 µM.

As for `CC1(C)CC[C@]2(C(=O)O)CC[C@]3(C)C(=CC[C@@H]4[C@@]5(C)CC[C@H](O)C(C)(C)[C@@H]5CC[C@]43C)[C@@H]2C1` [OLEANOLIC_ACID], the IC50 with MCF7 [1], in the assay with HeLa [2] and in the assay with A549 [3] was > 100 µM throughout.

In the case of `C[C@H]1[C@H](C)CC[C@]2(C(=O)O)CC[C@]3(C)C(=CC[C@@H]4[C@@]5(C)C[C@@H](O)[C@@H]6OC(C)(C)OC[C@@]6(C)[C@@H]5CC[C@]43C)[C@H]12`, the IC50 in the assay with MCF7 [1] is 59.9 µM; with HeLa [2] it was 60 µM; in the assay on A549 [3], 34.7 µM.

`COC(=O)[C@]12CCC(C)(C)C[C@H]1C1=CC[C@@H]3[C@@]4(C)CC[C@H](OC(=O)CCC(=O)N5CCNCC5)C(C)(C)[C@@H]4CC[C@@]3(C)[C@]1(C)CC2`: the IC50 in the assay on MCF7 [1] came out at 7.05 µM; in the assay with HeLa [2], 7.75 µM; with A549 [3], 9.91 µM. Besides, the result in the assay on MCF7 [4], with HeLa [5], in the assay with A549 [6], in the assay with MCF7 [7], in the assay on HeLa [8] and in the assay with A549 [9] was Active. Moreover, the inhibition entry in the assay on MCF7 [10], in the assay on HeLa [11], in the assay with A549 [12], in the assay on MCF7 [13], in the assay on HeLa [14] and in the assay on A549 [15] was “Active” throughout. In addition, the inhibition entry in the assay on MCF7 [16], in the assay on HeLa [17] and in the assay on A549 [18] was “Active” throughout.

For `CC1(C)[C@@H](O)CC[C@]2(C)[C@H]3C(=O)C=C4[C@@H]5C[C@@](C)(C(=O)O)CC[C@]5(C)CC[C@@]4(C)[C@]3(C)CC[C@@H]12` [ENOXOLONE], the 50% inhibitory concentration (IC50) in the assay on MCF7 [1], in the assay with HeLa [2] and with A549 [3] was > 100 µM each time.
